{"source": "patent US6803475B2", "about": "“Fluorous tagging compounds and methods of use thereof” (University of Pittsburgh, priority 2000, dated 2004)", "type_in_all_cases": "physicochemical", "key": {"[1]": {"test": "Stability in THF-d8 / 0.25 M NaOD (3:1), determined by 1H NMR", "conditions": "THF-d8 and 0.25 M NaOD (3:1)", "experimental": "(§1) The stability of these alkoxysilyl ethers appeared to be determined by the steric bulk around the silicon atom. While 34a was not very stable (t1/2˜6 min) under the acidic reaction conditions, 34b (t1/2˜4 h) was moderately stable, and the tert-butyl-phenyl-1H,1H,2H,2H-heptadecafluorodecyloxysilyl ether 37a (t1/2>>6 h) was very stable. […] As a result of the enhanced electrophilicity of the silicon atom in bis-alkoxysilyl ethers, the latter are generally more labile toward nucleophiles and bases than either the TBDPS or the tert-butyldimethylsilyl (TBDMS) groups. […] In contrast, the stability under protic acidic conditions in 5% p-TsOH/MeOH (t1/2˜40 min) is more limited."}, "[2]": {"test": "Stability of fluorous alkoxysilyl ethers in CH2Cl2/trifluoroacetic acid (5%), remaining ether analysed by LC-MS", "conditions": "aliquots quenched with MeOH/pyridine (20:1)", "experimental": "Fluorous alkoxysilyl ethers (34a,b, 37a) were each dissolved in a mixture of CH2Cl2/trifluoroacetic acid (5%), and aliquots of these solutions were quenched with MeOH/pyridine (20:1). The quenched reaction mixtures were analyzed for remaining 34a,b and 37a by LC-MS (Liquid chromatography-mass spectrometry). Reactions and quenching were performed on a HP 7868 solution phase synthesizer. Analysis of quenched samples was done with a HP 1100 series LC/MS. Samples eluted were compared with unreacted control samples. (Rt [min]: 2.6 (34a), 2.9 (34b), 2.3 (37a); Novapak C18, 3.9×150 mm, 1.2 mL/min, MeOH as eluent).\nas §1\nReactions and quenching were performed on a HP 7868 solution phase synthesizer. […]"}, "[3]": {"test": "Stability under protic acidic conditions in 5% p-TsOH/MeOH", "experimental": "as §1"}}}
{"smiles": "CC(C)(C)[Si](OCCC(F)(F)C(F)(F)C(F)(F)C(F)(F)C(F)(F)C(F)(F)C(F)(F)C(F)(F)F)(OC1CCCCC1)c1ccccc1", "note": "(stereo not drawn) [37a, tert-butyl-phenyl-1H,1H,2H,2H-heptadecafluorodecyloxysilyl ether]", "values": [{"measurement": "t1/2 in mildly basic aqueous medium", "setting": "[1]", "value": 48, "unit": "h"}, {"measurement": "t1/2 under the acidic reaction conditions", "setting": "[2]", "value": "> 6", "unit": "h"}, {"measurement": "t1/2 under protic acidic conditions", "setting": "[3]", "value": "~0.667", "unit": "h"}]}
